Results on one molecule are retold here after article PMC6934184, “Selective DNA-PKcs inhibition extends the therapeutic index of localized radiotherapy and chemotherapy” (The Journal of Clinical Investigation, 2019).

Each structure is given as a SMILES string.

In this experiment the target is T1, SYK (Homo sapiens, UniProt P43405).
T1 construct: purchased Thermo Fisher Scientific (Life Technologies) SelectScreen
Nature of the experiment: SelectScreen Z'LYTE. It is filed as biochemical. The essentials: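 SelectScreen broad panel; activity (Z'LYTE, Adapta) plus binding formats. ATP: Km app for CSF1R Z'LYTE; 10 for CAMK1 Adapta. Readout = % per kinase.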

As to `CN(C(=O)CN1CCOCC1)c1ccc2sc3c(-c4cccc5c(=O)cc(N6CC7CCC(C6)O7)oc45)cccc3c2c1` [NU5455], the inhibition (commonly the change of the read-out against control, counted positive when it falls) at 1 µM was -0.2%.
